How the values were obtained:
[1] = test system: antibodies in sera from SARS patients (sera 1a, 1b, 2, 6, 37, 62, London, SARS-yellow, SARS-green); type: binding, human; parameters: Binding of serum 6 to linear peptides of protein X1 of SARS-CoV Urbani / Binding of serum 37 to linear peptides of protein X1 of SARS-CoV Urbani / Binding of serum 6 to looped/cyclic peptide (PEPSCAN-ELISA) / Binding of serum 37 to looped/cyclic peptide (PEPSCAN-ELISA) / Binding of serum 37 to looped/cyclic peptides of protein X1 of SARS-CoV Urbani / Binding of serum 6 to linear peptides of protein X2 / Binding of serum 37 to linear peptides of protein X2 / Binding of serum 37 to looped/cyclic peptides of protein X2 of SARS-CoV Urbani / Binding of serum 6 to linear peptides of protein M of SARS-CoV Urbani / Binding of serum 37 to linear peptides of protein M of SARS-CoV Urbani / Binding of serum 6 to looped/cyclic peptides of protein M of SARS-CoV Urbani / Binding of serum 37 to looped/cyclic peptides of protein M of SARS-CoV Urbani / Binding of serum 6 to linear peptides of protein X3 of SARS-CoV Urbani / Binding of serum 37 to linear peptides of protein X3 of SARS-CoV Urbani / Binding of serum 37 to looped/cyclic peptides of protein X3 of SARS-CoV Urbani / Binding of serum 6 to linear peptides of protein X4 of SARS-CoV Urbani / Binding of serum 37 to linear peptides of protein X4 of SARS-CoV Urbani / Binding of serum 37 to looped/cyclic peptides of protein X4 of SARS-CoV Urbani / Binding of serum 6 to linear peptides of protein X5 of SARS-CoV Urbani / Binding of serum 37 to linear peptides of protein X5 of SARS-CoV Urbani / Binding of serum 37 to looped/cyclic peptides of protein X5 of SARS-CoV Urbani / Binding of serum 6 to linear peptides of protein N of SARS-CoV Urbani / Binding of serum 37 to linear peptides of protein N of SARS-CoV Urbani / Binding of serum 6 to linear peptide (PEPSCAN-ELISA) / Binding of serum 1a to looped/cyclic peptides of protein N of SARS-CoV Urbani / Binding of serum 1b to looped/cyclic peptides of protein N of SARS-CoV Urbani / Binding of serum 2 to looped/cyclic peptides of protein N of SARS-CoV Urbani / Binding of serum 6 to looped/cyclic peptides of protein N of SARS-CoV Urbani / Binding of serum 37 to looped/cyclic peptides of protein N of SARS-CoV Urbani / Binding of serum 62 to looped/cyclic peptides of protein N of SARS-CoV Urbani / Binding of serum London to looped/cyclic peptides of protein N of SARS-CoV Urbani / Binding of serum SARS-green to looped/cyclic peptides of protein N of SARS-CoV Urbani: unit not given here
[2] = test system: control sera (pooled serum of ten healthy LUMC hospital workers; commercial negative donor pooled serum from the Dutch bloodbank); type: binding, human; parameters: Binding of Control serum LUMC to linear peptides / Binding of Control serum Blood-bank to linear peptides / Binding of Control serum LUMC to looped peptides / Binding of Control Serum Blood-Bank to Looped peptides / Binding of Control serum LUMC to linear peptides of the protein M of SARS-CoV Urbani / Binding of Control serum Blood-bank to linear peptides of the protein M of SARS-CoV Urbani / Binding of Control serum LUMC to looped peptides of the protein M of SARS-CoV Urbani / Binding of Control Serum Blood-Bank to Looped peptides of the protein M of SARS-CoV Urbani: unit not given here
[3] = test system: rabbit serum obtained by immunizing a rabbit with the SARS-CoV strain Frankfurt 1; type: binding; parameters: Binding of a rabbit serum to linear peptides / Binding of a rabbit serum to looped peptides / Rabbit serum linear peptides / Rabbit serum looped peptides / Binding of a rabbit serum to linear peptides of protein N of SARS-CoV Urbani (Rabbit serum linear peptides) / Binding of a rabbit serum to looped/cyclic peptides of protein N of SARS-CoV Urbani (Rabbit serum looped peptides): unit not given here

Sequence | Binding of serum 1a to linear peptides of protein X4 of SARS-CoV Urbani [1] | Binding of serum 1a to looped/cyclic peptides of protein X4 of SARS-CoV Urbani [1] | Binding of serum 1b to linear peptides of protein X4 of SARS-CoV Urbani [1] | Binding of serum 1b to looped/cyclic peptides of protein X4 of SARS-CoV Urbani [1] | Binding of serum 2 to linear peptides of protein X4 of SARS-CoV Urbani [1] | Binding of serum 2 to looped/cyclic peptides of protein X4 of SARS-CoV Urbani [1] | Binding of serum 6 to linear peptides of protein X4 of SARS-CoV Urbani [1] | Binding of serum 6 to looped/cyclic peptides of protein X4 of SARS-CoV Urbani [1] | Binding of serum 37 to linear peptides of protein X4 of SARS-CoV Urbani [1] | Binding of serum 37 to looped/cyclic peptides of protein X4 of SARS-CoV Urbani [1] | Binding of serum 62 to linear peptides of protein X4 of SARS-CoV Urbani [1] | Binding of serum 62 to looped/cyclic peptides of protein X4 of SARS-CoV Urbani [1] | Binding of serum London to linear peptides of protein X4 of SARS-CoV Urbani [1] | Binding of serum London to looped/cyclic peptides of protein X4 of SARS-CoV Urbani [1] | Binding of serum SARS-green to linear peptides of protein X4 of SARS-CoV Urbani [1] | Binding of serum SARS-green to looped/cyclic peptides of protein X4 of SARS-CoV Urbani [1] | Binding of serum SARS-yellow to linear peptides of protein X4 of SARS-CoV Urbani [1] | Binding of serum SARS-yellow to looped/cyclic peptides of protein X4 of SARS-CoV Urbani [1] | Binding of Control Serum Blood-Bank to Looped peptides [2] | Binding of Control serum Blood-bank to linear peptides [2] | further results
STHFAFACADGTRHT | 0.7 | 0.7 | 0.6 | 0.5 | 0.5 | 0.6 | 0.7 | 0.5 | 0.7 | 0.6 | 0.8 | 0.5 | 0.8 | 0.3 | 0.6 | 0.5 | 0.3 | 0.6 | 0.7 | 0.6 | Binding of Control serum LUMC to linear peptides [2]: 0.5; Binding of Control serum LUMC to looped peptides [2]: 0.9; Rabbit serum linear peptides [3]: 0.4; Rabbit serum looped peptides [3]: 0.4
SVSPKLFIRQEEVQQ | 0.7 | 0.7 | 0.5 | 0.6 | 0.3 | 0.6 | 0.5 | 0.4 | 0.7 | 0.7 | 0.7 | 0.6 | 0.6 | 0.3 | 0.4 | 0.7 | 0.3 | 0.4 | 0.4 | 0.6 | Binding of Control serum LUMC to linear peptides [2]: 0.3; Binding of Control serum LUMC to looped peptides [2]: 0.7; Rabbit serum linear peptides [3]: 0.4; Rabbit serum looped peptides [3]: 0.3

Source: patent US20070128217A1 (priority 2003, published 2007)
